Assay [1] relates to human tripronuclear (3PN) zygotes. Description: Live imaging of spindle assembly and chromosome segregation in human 3PN zygotes injected with KIFC1. In kind it is cell-based. Particulars: for multipolar / bipolar spindle assembly: human 3PN zygotes, FIG. 9, B to D. The text has this:
Spindles in human fertilized eggs (zygotes) have also been reported to often be multipolar (6, 7, 122). […] The inventors thus tested if the introduction of exogenous KIFC1 increased the fidelity of spindle assembly and chromosome segregation in human zygotes, by using human tripronuclear (3PN) zygotes. Similar to the zygotes in (6, 7, 122), these zygotes frequently assembled multipolar spindles. […] Furthermore, introduction of mClover3-KIFC1 protein increased the frequency of zygotes with aligned chromosomes at anaphase onset from 20% to 57% (FIG. 9E), and the frequency of zygotes without lagging chromosomes during anaphase from 40% to 71% (FIG. 9F). Thus, introducing exogenous KIFC1 increased the efficiency of bipolar spindle assembly and reduced the risk of aneuploidy in human zygotes.
The use of human 3PN zygotes in this study was approved by the Ärztekammer Niedersachsen under the reference Bo/46/2020. Zygotes were collected from patients who underwent assisted reproduction treatment at Kinderwunschzentrum Göttingen and Fertility Center Berlin. All patients gave informed consent for their 3PN zygotes to be used in this study. For zygotes collected at Kinderwunschzentrum Göttingen, zygotes were cultured in G-1 PLUS medium (Vitrolife) under paraffin oil at 37° C. and 5% CO2. For zygotes collected at Fertility Center Berlin, zygotes were vitrified with Cryolock (FUJIFILM Irvine Scientific) using Vit Kit-Freeze (FUJIFILM Irvine Scientific). To maximize the survival and developmental rate of vitrified-thawed zygotes, zygotes were thawed in 1 ml of prewarmed G-MOPS PLUS (Vitrolife) containing 1 M D-(+)-trehalose (Sigma-Aldrich) at 37° C. for 1 min. Zygotes were then transferred to 300 μl of G-MOPS PLUS containing 0.5 M D-(+)-trehalose at room temperature for 3 min, 300 μl of G-MOPS PLUS containing 0.25 M D-(+)-trehalose at room temperature for 5 min, and 300 μl of G-MOPS PLUS at room temperature for 2 min. Recovered zygotes were cultured in G1-PLUS supplemented with 10% FBS under paraffin oil at 37° C. and 5% CO2. Staining and microinjection of human zygotes were performed as described above for human oocytes.

The test system of assay [2] is KIFC1/HSET-depleted aMTOC-free mouse oocytes. Description: Rescue of spindle polarity in KIFC1/HSET-depleted aMTOC-free mouse oocytes (human oocyte mimics). In kind it is cell-based. The text has this: This domain, together with the conserved, microtubule-binding motor domain, allows KIFC1/HSET to organize microtubules via crosslinking and/or sliding (86). To investigate the requirement of different domains in KIFC1/HSET, the inventors expressed a series of truncation mutants in aMTOC-free mouse oocytes (FIG. 7K). […] To examine whether the motor activity is dispensable for the function of KIFC1/HSET in aMTOC-free mouse oocytes, the inventors depleted endogenous KIFC1/HSET by follicle RNAi and restored expression with wild-type HSET or with HSET(N593K), which crosslinks microtubules but cannot slide (87). […] Together, the inventors infer that the appropriate level of KIFC1/HSET's crosslinking and sliding activities are required for proper bipolar spindle assembly in the absence of aMTOCs.
Mouse follicles were microinjected with 3.5 pl of siRNAs at a needle concentration of 2 μM as previously described (11). For rescue experiments, in vitro grown oocytes were microinjected with 3.5 pl of mRNAs. mClover3-HSET mRNA was microinjected at a needle concentration of 275 ng/μl, mClover3-HSET(N593K) mRNA at 275 ng/μl, mClover3-NUMA(S1955D) mRNA at 400 ng/μl, mClover3-NUMA(S1955A) mRNA at 400 ng/μl, mClover3-NUMA(SpM-4A) mRNA at 400 ng/μl, mClover3-NUMA(ΔMTBD1) mRNA at 400 ng/μl and mClover3-NUMA(ΔMTBD2) mRNA at 400 ng/μl. Oocytes were allowed to express the mRNAs for 3-4 h before release.
To obtain mouse MI spindles, oocytes were incubated at 37° C. for around 7 h after released into dbcAMP-free medium. To obtain porcine and bovine MI spindles, oocytes were incubated at 39° C./5% CO2 for around 11 and 12 h, respectively, after released into RO-3306-free medium. To obtain human MI spindles, oocytes were incubated at 37° C. for around 14 and 15 h after NEBD. None of the oocytes used for immunofluorescence analyses was subjected to live imaging before fixation.
Time-lapse movies of live mouse, bovine and porcine oocytes, and fixed human and mouse spindles were analyzed in 3D using Imaris (Bitplane). To determine the stages of meiosis and to score for spindle instability, the timing of meiotic progression was quantified relative to the timing of NEBD. NEBD was defined as the time point when the sharp boundary between the nucleus and cytoplasm disappeared in the differential interference contrast image (for mouse oocytes) or when the nucleus started collapsing in the H2B channel (for bovine and porcine oocytes). Spindle poles were defined as regions of MAP4 or MAP4-MTBD or α-tubulin intensity that prominently protruded from the main microtubule mass. In FIG. 1D, oocytes with bipolar spindle, in which ends of all microtubules converged at the poles, were scored as having focused poles. […] For mouse oocytes, unfocused poles were further classified into mildly unfocused poles (with partially separated microtubule ends) and severely unfocused poles (with fully separated microtubule ends). In FIG. 4D, bovine and porcine oocytes, in which the spindle maintained a barrel-shaped bipolar morphology and a detectable spindle axis, were scored as having stable spindle poles. Oocytes, in which the spindle lost their initial bipolarity and underwent dynamic remodeling of the pole(s) were scored as having unstable spindle poles. […] Oocytes, in which the spindle had more than two poles, were scored as having multipolar spindle. In FIG. 1H, mouse oocytes, in which the spindle had two well-defined poles, were scored as having bipolar spindle. Mouse oocytes, in which the spindle had two poorly defined poles, were scored as having apolar/round spindle. Mouse oocytes, in which the spindle had more than two poles, were scored as having multipolar spindle. […] Mouse oocytes, in which the spindle lost its barrel shape but contains several weakly associated microtubule bundles, were scored as having disorganized spindle.

The results in this text go back to patent US20250146022A1, “STABILISING THE HUMAN SPINDLE BY KIFC1/HSET” (MAX-PLANCK-GESELLSCHAFT ZUR FOERDERUNG DER WISSENSCHAFTEN …, priority 2021, published 2025).

On to “KIFC1/HSET: Recombinant mClover3-tagged human kinesin-14 KIFC1/HSET protein (SEQ ID NO: 1), expressed in 293 cells, microinjected into human oocytes and zygotes”, for which the “frequency of zygotes with aligned chromosomes at anaphase onset” value in assay [1] (KIFC1-injected human 3PN zygotes, non-injected 20%, FIG. 9E) was 57%. Moreover, the “frequency of zygotes without lagging chromosomes during anaphase” value in assay [1] (KIFC1-injected human 3PN zygotes, non-injected 40%, FIG. 9F) is reported as 71%. For the same substance, the “multipolar / bipolar spindle assembly” value in assay [1] is “significantly reduces multipolar spindle assembly and/or promoted bipolar spindle assembly”; in assay [1] (listed as mClover3-KIFC1) it was “significantly reduced multipolar spindle assembly and promoted bipolar spindle assembly”. The “fold higher probability of having a bipolar spindle vs mimics without introduced KIFC1/HSET” value in assay [2] (FIG. 3H (left bar)) is 3.2 fold. Further, the “difference in percentage of bipolar spindles” value in assay [2] (from around 30% to 96%) came to 66%. Also, the bipolar spindles entry in assay [2] (re-introduction of KIFC1/HSET (rescue experiment) in human oocyte mimics, without around 30%, FIG. 3H) is given as “around 96%”.
